Measurements as given in patent US20220009920A1 (GB005, Inc., priority 2020, published 2022).

What was measured:
Experiment in all cases: Large panel kinase profiling
Type in all cases: biochemical
Conditions in all cases: 1 μM test article, 1 mM ATP
EPHA8 = target: T1, EPHA8 (Homo sapiens, UniProt P29322)
T1 sequence (P29322 28-1005): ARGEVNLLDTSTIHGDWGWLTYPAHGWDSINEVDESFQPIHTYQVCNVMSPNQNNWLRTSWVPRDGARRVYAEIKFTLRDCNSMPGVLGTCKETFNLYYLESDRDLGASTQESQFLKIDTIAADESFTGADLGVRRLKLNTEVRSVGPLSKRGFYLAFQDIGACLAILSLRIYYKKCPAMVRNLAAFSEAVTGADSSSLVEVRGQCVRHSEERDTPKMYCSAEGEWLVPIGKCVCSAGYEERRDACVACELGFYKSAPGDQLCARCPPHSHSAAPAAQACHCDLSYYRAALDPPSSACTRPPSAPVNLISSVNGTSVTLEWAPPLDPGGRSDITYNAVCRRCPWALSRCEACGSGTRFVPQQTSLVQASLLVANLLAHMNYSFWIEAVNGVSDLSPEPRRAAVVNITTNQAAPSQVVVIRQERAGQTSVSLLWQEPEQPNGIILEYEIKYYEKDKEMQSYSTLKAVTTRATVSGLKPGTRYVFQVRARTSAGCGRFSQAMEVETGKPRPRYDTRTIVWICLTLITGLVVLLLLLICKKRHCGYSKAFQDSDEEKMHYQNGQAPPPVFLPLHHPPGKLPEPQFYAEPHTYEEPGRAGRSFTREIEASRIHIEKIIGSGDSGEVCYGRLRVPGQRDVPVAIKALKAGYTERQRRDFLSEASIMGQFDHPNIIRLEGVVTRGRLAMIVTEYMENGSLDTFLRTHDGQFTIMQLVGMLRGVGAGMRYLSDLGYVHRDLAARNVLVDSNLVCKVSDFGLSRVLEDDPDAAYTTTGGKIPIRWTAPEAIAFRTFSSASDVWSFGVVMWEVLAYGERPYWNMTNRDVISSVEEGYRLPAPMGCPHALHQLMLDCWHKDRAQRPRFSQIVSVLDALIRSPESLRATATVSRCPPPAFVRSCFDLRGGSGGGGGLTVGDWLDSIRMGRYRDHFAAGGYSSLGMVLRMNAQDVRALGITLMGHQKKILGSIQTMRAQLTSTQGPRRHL
Method in brief: (§1)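 Activity is measured in real time from the CSox sensor's fluorescence at 485 nm after 360 nm excitation, sampled every minute. Assays run at 30° C. with 1 mM ATP and a single 1 μM compound dose.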

DYRK1B = target: T2, DYRK1B (Homo sapiens, UniProt Q9Y463)
T2 construct: AssayQuant Technologies, Inc. (service laboratory)
Method in brief: as §1

BRSK2 = target: T3, BRSK2 (Homo sapiens, UniProt Q8IWQ3)
T3 sequence (Q8IWQ3 1-736): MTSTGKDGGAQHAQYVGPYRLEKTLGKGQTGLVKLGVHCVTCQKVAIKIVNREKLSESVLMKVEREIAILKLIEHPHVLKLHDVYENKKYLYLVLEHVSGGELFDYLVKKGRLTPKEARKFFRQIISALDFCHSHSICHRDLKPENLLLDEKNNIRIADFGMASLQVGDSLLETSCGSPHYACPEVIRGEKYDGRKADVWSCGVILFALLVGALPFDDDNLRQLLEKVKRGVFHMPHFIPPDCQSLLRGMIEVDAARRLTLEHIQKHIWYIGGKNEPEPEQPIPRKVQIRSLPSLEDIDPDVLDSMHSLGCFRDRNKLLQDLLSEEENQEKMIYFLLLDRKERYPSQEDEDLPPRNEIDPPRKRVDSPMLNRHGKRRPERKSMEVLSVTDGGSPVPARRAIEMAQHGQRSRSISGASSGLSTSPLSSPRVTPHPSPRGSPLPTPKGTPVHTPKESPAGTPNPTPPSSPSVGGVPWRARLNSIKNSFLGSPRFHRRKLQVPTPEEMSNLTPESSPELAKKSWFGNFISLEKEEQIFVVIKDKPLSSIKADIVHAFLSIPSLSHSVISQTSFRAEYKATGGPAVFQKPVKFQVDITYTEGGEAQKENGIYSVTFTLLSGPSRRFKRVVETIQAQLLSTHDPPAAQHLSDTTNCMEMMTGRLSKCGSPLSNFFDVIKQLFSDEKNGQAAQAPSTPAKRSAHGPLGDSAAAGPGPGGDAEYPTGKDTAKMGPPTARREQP
Method in brief: as §1

T2 sequence (Q9Y463 whole entry, species assumed): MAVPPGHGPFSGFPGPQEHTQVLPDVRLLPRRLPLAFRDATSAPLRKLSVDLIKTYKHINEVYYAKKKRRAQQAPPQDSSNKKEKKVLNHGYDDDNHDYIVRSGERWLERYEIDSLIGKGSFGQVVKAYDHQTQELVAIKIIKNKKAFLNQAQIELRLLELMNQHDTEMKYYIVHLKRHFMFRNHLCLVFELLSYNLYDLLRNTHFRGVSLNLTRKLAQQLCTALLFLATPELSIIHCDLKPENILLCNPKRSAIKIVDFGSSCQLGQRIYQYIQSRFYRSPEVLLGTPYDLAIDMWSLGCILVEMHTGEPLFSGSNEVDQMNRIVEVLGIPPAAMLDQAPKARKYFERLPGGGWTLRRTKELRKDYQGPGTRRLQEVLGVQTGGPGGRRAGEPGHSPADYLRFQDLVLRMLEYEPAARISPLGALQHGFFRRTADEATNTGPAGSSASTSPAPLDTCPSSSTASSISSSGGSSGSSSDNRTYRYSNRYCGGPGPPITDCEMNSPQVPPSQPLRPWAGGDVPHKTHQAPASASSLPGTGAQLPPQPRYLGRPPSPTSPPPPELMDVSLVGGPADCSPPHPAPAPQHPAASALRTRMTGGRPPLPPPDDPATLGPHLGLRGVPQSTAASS

Row | Structure (SMILES) | inhibition at 1 µM (EPHA8) [%] | inhibition at 1 µM (DYRK1B) [%] | inhibition at 1 µM (BRSK2) [%]
1 | C=CC(=O)N1CCCC(c2c(F)cc(C(N)=O)c3[nH]c4c(c23)CCCCC4)C1 (single isomer, unassigned) [Compound 5-6] | 10 | 16.1 | -31.2
2 | C=CC(=O)N1CCC[C@@H](c2c(F)cc(C(N)=O)c3[nH]c4c(c23)CCC4)C1 [Compound 10-2, (S)-8-(1-acryloylpiperidin-3-yl)-7-fluoro-1,2,3,4-tetrahydrocyclo-penta[b]indole-5-carboxamide] | -19.1 | 6.6 | 1.8
3 | C=CC(=O)N1CCC[C@@H](c2c(F)cc(C(N)=O)c3[nH]c4c(c23)CC2(CC4)CC2)C1 [Compound 6-2, (S)-5-(1-acryloylpiperidin-3-yl)-6-fluoro-1,2,4,9-tetrahydrospiro[carbazole-3,1′-cyclopropane]-8-carboxamide] | -15.3 | -0.2 | -5.7
